Assays:
[1] = tested on: QD3-sbl (DNA, G4) TTAGGTGGGTAGGGTGGGCTAGTCATTTTGACTAGG; assay: ITC; conditions: 120 mM K+; 20 mM potassium phosphate, 100 mM KCl, pH 7.0, 5% DMSO, 40 °C; high-affinity site, two-site fit
[2] = tested on: QD2-l (DNA, G4) GGTTGGCGCGAAGCATTCGCGGGTTGG; assay: NMR titration (imino protons, ROESY exchange); conditions: K+ (10 mM potassium phosphate), pH 7.0, 20 °C, 0.5 mM DNA, slow exchange, intercalation at junction
[3] = tested on: QD3-sbl (DNA, G4) TTAGGTGGGTAGGGTGGGCTAGTCATTTTGACTAGG; assay: NMR solution structure; conditions: K+ (10 mM potassium phosphate); pH 7.0, 30 °C; about 2% DMSO-d6; intercalation at quadruplex-duplex junction

Question: With `C[n+]1c2ccccc2cc2[nH]c3ccccc3c21` as the molecule, how does the Ka [1] read?
Answer: The Ka was “(3.3±0.7) ⋅ 10^6 M^-1”.

Question: `CN(C)CCCNc1c2ccccc2nc2c1[nH]c1ccccc12` was tested. Which Ka [1] did it give?
Answer: Its Ka is “(1.1±0.3) ⋅ 10^7 M^-1”.

Question: What about the binding [2] of the same molecule?
Answer: The binding was “yes”.

Question: What about the binding [3] of the same molecule?
Answer: The binding was “yes”.
